System: 873145-292-R-J1-PDC complex spheroid viability
Assay: Anticancer human tumor 873145-292-R-J1-PDC patient-derived renal clear cell carcinoma cell line growth inhibition [POLQ]
Details: for IC50: curve of first compound; for viability, T/C: stronger effect = lower value
How it was run: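 Complex spheroid viability model combining PDC tumour cells with endothelial (HUVEC) and MSC stromal cells. Novobiocin, ART-558 or RP6685 were tested singly and in combination with standard and investigational anticancer drugs. Each was titrated in half-log steps from near clinical Cmax, or from 10 microM where Cmax was unknown.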

[1] = second compound 0.0316 µM, first compound 0.0316 µM
[2] = second compound 0.0316 µM, first compound 0.1 µM
[3] = second compound 0.0316 µM, first compound 0.316 µM
[4] = second compound 0.0316 µM, first compound 1 µM
[5] = second compound 0.0316 µM, first compound 3.16 µM
[6] = second compound 0.0316 µM, first compound 10 µM
[7] = second compound 0.1 µM, first compound 0.0316 µM
[8] = second compound 0.1 µM, first compound 0.1 µM
[9] = second compound 0.1 µM, first compound 0.316 µM
[10] = second compound 0.1 µM, first compound 1 µM
[11] = second compound 0.1 µM, first compound 3.16 µM
[12] = second compound 0.1 µM, first compound 10 µM
[13] = second compound 0.316 µM, first compound 0.0316 µM
[14] = second compound 0.316 µM, first compound 0.1 µM
[15] = second compound 0.316 µM, first compound 0.316 µM
[16] = second compound 0.316 µM, first compound 1 µM
[17] = second compound 0.316 µM, first compound 3.16 µM
[18] = second compound 0.316 µM, first compound 10 µM
[19] = second compound 1 µM, first compound 0.0316 µM
[20] = second compound 1 µM, first compound 0.1 µM
[21] = second compound 1 µM, first compound 0.316 µM
[22] = second compound 1 µM, first compound 1 µM
[23] = second compound 1 µM, first compound 3.16 µM
[24] = second compound 1 µM, first compound 10 µM
[25] = second compound 3.16 µM, first compound 0.0316 µM
[26] = second compound 3.16 µM, first compound 0.1 µM
[27] = second compound 3.16 µM, first compound 0.316 µM
[28] = second compound 3.16 µM, first compound 1 µM
[29] = second compound 3.16 µM, first compound 3.16 µM
[30] = second compound 3.16 µM, first compound 10 µM
[31] = second compound 10 µM, first compound 0.0316 µM
[32] = second compound 10 µM, first compound 0.1 µM
[33] = second compound 10 µM, first compound 0.316 µM
[34] = second compound 10 µM, first compound 1 µM
[35] = second compound 10 µM, first compound 3.16 µM
[36] = second compound 10 µM, first compound 10 µM
[37] = second compound 0.0316 µM, first compound 0.00316 µM
[38] = second compound 0.0316 µM, first compound 0.01 µM
[39] = second compound 0.1 µM, first compound 0.00316 µM
[40] = second compound 0.1 µM, first compound 0.01 µM
[41] = second compound 0.316 µM, first compound 0.00316 µM
[42] = second compound 0.316 µM, first compound 0.01 µM
[43] = second compound 1 µM, first compound 0.00316 µM
[44] = second compound 1 µM, first compound 0.01 µM
[45] = second compound 3.16 µM, first compound 0.00316 µM
[46] = second compound 3.16 µM, first compound 0.01 µM
[47] = second compound 10 µM, first compound 0.00316 µM
[48] = second compound 10 µM, first compound 0.01 µM
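Also: spheroids exposed to compounds for 7 days before viability readout.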
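For viability, T/C in this document: luminescence signal used as surrogate for viable cell content; 100% = DMSO vehicle control viability.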

CCCS(=O)(=O)Nc1ccc(F)c(C(=O)c2c[nH]c3ncc(-c4ccc(Cl)cc4)cc23)c1F + Nc1ccc(C#CCN(C(=O)Cc2ncc(C(F)(F)F)cc2C(F)(F)F)c2ccc(F)cc2)nn1
IC50 (second compound 0.0316 µM): > 10 µM | IC50 (second compound 0.1 µM): > 10 µM | IC50 (second compound 0.316 µM): > 10 µM | IC50 (second compound 1 µM): > 10 µM | IC50 (second compound 3.16 µM): > 10 µM | IC50 (second compound 10 µM): > 10 µM | viability, T/C [1]: 106% | viability, T/C [2]: 106% | viability, T/C [3]: 115% | viability, T/C [4]: 97% | viability, T/C [5]: 103% | viability, T/C [6]: 71.2% | viability, T/C [7]: 103% | viability, T/C [8]: 110% | viability, T/C [9]: 91.9% | viability, T/C [10]: 98% | viability, T/C [11]: 105% | viability, T/C [12]: 63.3% | viability, T/C [13]: 109% | viability, T/C [14]: 107% | viability, T/C [15]: 93.3% | viability, T/C [16]: 112% | viability, T/C [17]: 99.2% | viability, T/C [18]: 75.6% | viability, T/C [19]: 98.7% | viability, T/C [20]: 98.9% | viability, T/C [21]: 102% | viability, T/C [22]: 102% | viability, T/C [23]: 91.1% | viability, T/C [24]: 63% | viability, T/C [25]: 106% | viability, T/C [26]: 113% | viability, T/C [27]: 108% | viability, T/C [28]: 108% | viability, T/C [29]: 101% | viability, T/C [30]: 75.4% | viability, T/C [31]: 121% | viability, T/C [32]: 121% | viability, T/C [33]: 111% | viability, T/C [34]: 107% | viability, T/C [35]: 110% | viability, T/C [36]: 78.5%

CNCc1ccc(-c2[nH]c3cc(F)cc4c3c2CCNC4=O)cc1 + Nc1ccc(C#CCN(C(=O)Cc2ncc(C(F)(F)F)cc2C(F)(F)F)c2ccc(F)cc2)nn1
IC50 (second compound 0.0316 µM): > 10 µM | IC50 (second compound 0.1 µM): > 10 µM | IC50 (second compound 0.316 µM): > 10 µM | IC50 (second compound 1 µM): > 10 µM | IC50 (second compound 3.16 µM): > 10 µM | IC50 (second compound 10 µM): > 10 µM | viability, T/C [1]: 99% | viability, T/C [2]: 92.8% | viability, T/C [3]: 89.1% | viability, T/C [4]: 87.7% | viability, T/C [5]: 95.5% | viability, T/C [6]: 103% | viability, T/C [7]: 107% | viability, T/C [8]: 105% | viability, T/C [9]: 83.5% | viability, T/C [10]: 88.9% | viability, T/C [11]: 88.3% | viability, T/C [12]: 92.8% | viability, T/C [13]: 97.3% | viability, T/C [14]: 95.8% | viability, T/C [15]: 88.6% | viability, T/C [16]: 92.4% | viability, T/C [17]: 91.6% | viability, T/C [18]: 89.2% | viability, T/C [19]: 102% | viability, T/C [20]: 92.9% | viability, T/C [21]: 102% | viability, T/C [22]: 94.7% | viability, T/C [23]: 103% | viability, T/C [24]: 90.4% | viability, T/C [25]: 100% | viability, T/C [26]: 104% | viability, T/C [27]: 108% | viability, T/C [28]: 95.4% | viability, T/C [29]: 97.5% | viability, T/C [30]: 100% | viability, T/C [31]: 109% | viability, T/C [32]: 104% | viability, T/C [33]: 103% | viability, T/C [34]: 100% | viability, T/C [35]: 99.4% | viability, T/C [36]: 105%

COc1cccc(OCCCN)c1-c1cc(Nc2cnc(C#N)cn2)n[nH]1 + Nc1ccc(C#CCN(C(=O)Cc2ncc(C(F)(F)F)cc2C(F)(F)F)c2ccc(F)cc2)nn1
IC50 (second compound 0.0316 µM): > 1 µM | IC50 (second compound 0.1 µM): > 1 µM | IC50 (second compound 0.316 µM): > 1 µM | IC50 (second compound 1 µM): > 1 µM | IC50 (second compound 3.16 µM): > 1 µM | IC50 (second compound 10 µM): > 1 µM | viability, T/C [37]: 94% | viability, T/C [38]: 94.2% | viability, T/C [1]: 76.3% | viability, T/C [2]: 66.6% | viability, T/C [3]: 74.3% | viability, T/C [4]: 73.2% | viability, T/C [39]: 91% | viability, T/C [40]: 98.2% | viability, T/C [7]: 74.8% | viability, T/C [8]: 71.8% | viability, T/C [9]: 65.4% | viability, T/C [10]: 71.1% | viability, T/C [41]: 95.5% | viability, T/C [42]: 97% | viability, T/C [13]: 67.7% | viability, T/C [14]: 66.6% | viability, T/C [15]: 79.9% | viability, T/C [16]: 77.8% | viability, T/C [43]: 96.3% | viability, T/C [44]: 78.4% | viability, T/C [19]: 73.8% | viability, T/C [20]: 70.8% | viability, T/C [21]: 83.5% | viability, T/C [22]: 73.3% | viability, T/C [45]: 90.3% | viability, T/C [46]: 88.9% | viability, T/C [25]: 68.9% | viability, T/C [26]: 67.1% | viability, T/C [27]: 65.2% | viability, T/C [28]: 83.9% | viability, T/C [47]: 103% | viability, T/C [48]: 90.3% | viability, T/C [31]: 74.3% | viability, T/C [32]: 68.5% | viability, T/C [33]: 69.1% | viability, T/C [34]: 95.5%

Cn1ncnc1[C@H]1c2n[nH]c(=O)c3cc(F)cc(c23)N[C@@H]1c1ccc(F)cc1 + Nc1ccc(C#CCN(C(=O)Cc2ncc(C(F)(F)F)cc2C(F)(F)F)c2ccc(F)cc2)nn1
IC50 (second compound 0.0316 µM): > 0.1 µM | IC50 (second compound 0.1 µM): > 0.1 µM | IC50 (second compound 0.316 µM): > 0.1 µM | IC50 (second compound 1 µM): > 0.1 µM | IC50 (second compound 3.16 µM): > 0.1 µM | IC50 (second compound 10 µM): > 0.1 µM | viability, T/C (second compound 0.0316 µM, first compound 0.000316 µM): 124% | viability, T/C (second compound 0.0316 µM, first compound 0.001 µM): 103% | viability, T/C [37]: 90.9% | viability, T/C [38]: 99.3% | viability, T/C [1]: 106% | viability, T/C [2]: 104% | viability, T/C (second compound 0.1 µM, first compound 0.000316 µM): 105% | viability, T/C (second compound 0.1 µM, first compound 0.001 µM): 99.3% | viability, T/C [39]: 107% | viability, T/C [40]: 91.8% | viability, T/C [7]: 102% | viability, T/C [8]: 99.6% | viability, T/C (second compound 0.316 µM, first compound 0.000316 µM): 97% | viability, T/C (second compound 0.316 µM, first compound 0.001 µM): 108% | viability, T/C [41]: 99.2% | viability, T/C [42]: 96.7% | viability, T/C [13]: 98.8% | viability, T/C [14]: 96.8% | viability, T/C (second compound 1 µM, first compound 0.000316 µM): 94.9% | viability, T/C (second compound 1 µM, first compound 0.001 µM): 100% | viability, T/C [43]: 96.1% | viability, T/C [44]: 97.1% | viability, T/C [19]: 95.9% | viability, T/C [20]: 96.3% | viability, T/C (second compound 3.16 µM, first compound 0.000316 µM): 92.1% | viability, T/C (second compound 3.16 µM, first compound 0.001 µM): 108% | viability, T/C [45]: 97.2% | viability, T/C [46]: 95.3% | viability, T/C [25]: 95.8% | viability, T/C [26]: 95.8% | viability, T/C (second compound 10 µM, first compound 0.000316 µM): 107% | viability, T/C (second compound 10 µM, first compound 0.001 µM): 110% | viability, T/C [47]: 108% | viability, T/C [48]: 117% | viability, T/C [31]: 107% | viability, T/C [32]: 103%

Source: PubChem BioAssay AID1963834 (Molecular Pharmacology Branch, DTP, NCI, 2024)
